Patent US11976074B1, “Crystalline salts of Linsitinib” (Sling Therapeutics, Inc., priority 2023, dated 2024)
Converted amounts (≈) assume the structure as drawn.

How the values were obtained:
[1] = Equilibrium solubility in bio-relevant media (FaSSGF pH 1.6, FaSSIF pH 6.5); assay type: physicochemical; conditions: for Solubility compared with the free base: in words; for solubility: thermodynamic from solid, read-out: Solubility
Text: In addition to the pH-solubility data, a comparison of the equilibrium solubility of linsitinib free base and salts in two bio-relevant media (Table 28), fasted state simulated gastric fluid (FaSSGF pH 1.6) and intestinal fluid (FaSSIF pH 6.5) was completed. […] A saturated solution of Esylate 1 was not achieved during this study and therefore the equilibrium solubility could be higher than determined. It should be noted that variability of almost a full pH unit was noted among the samples making a direct comparison more challenging.

[2] = pH-solubility of linsitinib free base and selected salts (pH 1.5 to 6.5, overnight equilibration, HPLC); assay type: physicochemical; conditions: for solubility: aqueous solution, thermodynamic from solid, overnight equilibration, read-out: Solubility; for Final pH: after overnight equilibration
Experimental: The pH-solubility of selected salts (Phosphate 1, L-Malate 1, Esylate 1, and Esylate 2) was evaluated and compared with linsitinib free base. The solubility analysis was conducted in a manner consistent with a previous study that was performed with linsitinib free base. Aqueous solutions were prepared between pH 1.5 and pH 6.5 in 0.5 pH unit increments via titration of the solution using NaOH and HCl. For each salt or the free base, an attempt was made to reach saturation in each of the solutions by adding sufficient material to the solution such that excess solids remained. If saturation was achieved, the pH of the solution was measured and adjusted to the target pH and additional material was added if needed. The samples were then equilibrated overnight. The final pH of the solution was measured, the solids were filtered and selected samples were analyzed by PXRD. The concentration of linsitinib in the filtrate was quantitated by HPLC (diluted as needed). In some cases, significant drift (+1 pH unit or more) of the final pH from the target pH was observed after the overnight equilibration.
The pH-solubility data is shown graphically in FIG. 89. […] Indeed, it should be noted that in the majority of the low pH systems, higher initial dissolution/solubility was observed followed by precipitation of the material from solution upon longer equilibration.

[3] = Water activity boundary between malate forms; assay type: physicochemical; conditions: or 90% relative humidity
Experimental: Malate 2, Malate 4, and Malate 5 were all obtained from high water activity conditions and are suspected to be hydrated forms. Based on the weight loss in the TG thermograms of Malate 4 and Malate 5, they could be di-hydrates. The water activity boundary between Malate 4 and Malate 1 was determined to be approximately 0.9 water activity, or 90% relative humidity. At a water activity of 0.8, Malate 1 was obtained; however, there were additional peaks present by PXRD. […]

[4] = cited from earlier work
[5] = cited from earlier work; remark: listed apart in the source
[6] = Heating experiments with selected malate samples; assay type: physicochemical
Experimental: Based on the thermal data, Malate 4 and Malate 5 were heated at […] for 15 minutes. The solids were re-analyzed by PXRD after heating to investigate any form change upon dehydration. […] While there was an insufficient amount of sample to further characterize Malate 7, based on the conditions upon which it was generated, it could be a lower hydrate or an anhydrous form.

[7] = Thermogravimetric analysis (TGA); assay type: physicochemical; conditions: start to 65° C.
Experimental: The TG analysis was carried out using a TA Instruments […] Discovery Series instrument. The instrument balance was calibrated using class M weights and the temperature calibration was performed using alumel. The nitrogen purge was 10 mL per minute at the balance and 25 mL per minute at the furnace. The sample was placed into a pre-tared platinum pan and heated from approximately 25° C. to 300° C. at a rate of 10° C. per minute.

[8] = Polymorph screen of linsitinib malate (PXRD/XRPD result); assay type: physicochemical; conditions: polymorph screen of linsitinib malate; slurry, cooling, precipitation or lyophilization; solvent and conditions per sample no.; listed as 4-10
Experimental: A Rigaku SmartLab X-Ray Diffractometer was configured in Bragg-Brentano reflection geometry equipped with a beam stop and knife edge to reduce incident beam and air scatter.
A polymorph screen of linsitinib malate was conducted. Experiments were designed to target thermodynamically stable forms and therefore utilized techniques such as long-term slurry, cooling, anti-solvent addition, and evaporation. Reaction crystallization experiments with linsitinib free base and L-malic acid were also conducted. Additionally, non-crystalline material was used as an alternative starting material as this can provide access to polymorphs that would not be accessible from crystalline starting material.

[9] = fasted state simulated gastric fluid (FaSSGF), pH 1.6, fassgf or other biorelevant, FaSSGF (pH 1.6)
[10] = fasted state simulated intestinal fluid (FaSSIF), pH 6.5, fassif, FaSSIF (pH 6.5)
[11] = pH 4, aqueous buffer, target pH 4.0, * = clear solution, not equilibrium value
[12] = pH 4.5, aqueous buffer, target pH 4.5, * = clear solution, not equilibrium value
[13] = pH 5, aqueous buffer, target pH 5.0
[14] = pH 5.5, aqueous buffer, target pH 5.5
[15] = pH 6, aqueous buffer, target pH 6.0
[16] = pH 6.5, aqueous buffer, target pH 6.5
[17] = pH adjusted with NaOH and HCl, pH 1.5, aqueous buffer, target pH 1.5, * = clear solution, not equilibrium value
[18] = pH adjusted with NaOH and HCl, pH 2, aqueous buffer, target pH 2.0, * = clear solution, not equilibrium value
[19] = pH adjusted with NaOH and HCl, pH 2.5, aqueous buffer, target pH 2.5, * = clear solution, not equilibrium value
[20] = pH adjusted with NaOH and HCl, pH 3, aqueous buffer, target pH 3.0, * = clear solution, not equilibrium value
[21] = pH adjusted with NaOH and HCl, pH 3.5, aqueous buffer, target pH 3.5, * = clear solution, not equilibrium value

| Compound | Final pH ([1]; FaSSGF (pH 1.6)) | Final pH ([1]; FaSSIF (pH 6.5)) | solubility [1, 9] [µg/mL] | solubility [1, 10] [µg/mL] | solubility [2, 11] [µg/mL] | solubility [2, 12] [µg/mL] | solubility [2, 13] [µg/mL] | solubility [2, 14] [µg/mL] | solubility [2, 15] [µg/mL] | solubility [2, 16] [µg/mL] | solubility [2, 17] [µg/mL] | solubility [2, 18] [µg/mL] | solubility [2, 19] [µg/mL] | solubility [2, 20] [µg/mL] | solubility [2, 21] [µg/mL] | Final pH ([2]; target pH 1.5) | Final pH ([2]; target pH 2.0) | Final pH ([2]; target pH 2.5) | Final pH ([2]; target pH 3.0) | Final pH ([2]; target pH 3.5) | also measured |
| --- | --- | --- | --- | --- | --- | --- | --- | --- | --- | --- | --- | --- | --- | --- | --- | --- | --- | --- | --- | --- | --- |
| C[C@]1(O)C[C@@H](c2nc(-c3ccc4ccc(-c5ccccc5)nc4c3)c3c(N)nccn32)C1.O=C(O)C[C@H](O)C(=O)O [L-Malate 1] | 2.97 | 5.46 | 8130 | 44 | 1340 | 337 | 274 | 192 | 122 | 16.5 | 82300 | 74000 | 39000 | 15300 | 4290 | 1.45 | 2.02 | 2.37 | 2.80 | 3.08 | Solubility compared with the free base ([1]; FaSSGF (pH 1.6)): largely comparable; Solubility compared with the free base ([1]; FaSSIF (pH 6.5)): higher solubility than the free base; Solubility compared with the free base or Phosphate 1 ([2]; lower pH (<3)): significantly higher solubility; Final pH ([2]; target pH 4.0): 3.38; Final pH ([2]; target pH 4.5): 5.05; Final pH ([2]; target pH 5.0): 5.16; Final pH ([2]; target pH 5.5): 5.32; Final pH ([2]; target pH 6.0): 5.50; Final pH ([2]; target pH 6.5): 5.18; Water activity boundary between Malate 4 and Malate 1 [3]: approximately 0.9 water activity |
| C[C@]1(O)C[C@@H](c2nc(-c3ccc4ccc(-c5ccccc5)nc4c3)c3c(N)nccn32)C1 [Linsitinib free base, Cis-3-[8-amino-1-(2-phenyl-7-quinolinyl)imidazo[1,5-a]pyrazin-3-yl]-1-methyl-cyclobutanol, reference compound] | 4.04 | 6.57 | 7670 (≈ 18.2 mM) | 25 (≈ 0.0593 mM) | 116 | 5.1 | 1.2 | 1.7 | 1 | 1.2 | 54000 | 23600 | 17600 | 15000 | 1730 | 1.52 | 2.04 | 2.33 | 2.76 | 3.64 | Permeability [4]: good permeability; Final pH ([2]; target pH 4.0): 4.18; Final pH ([2]; target pH 4.5): 5.54; Final pH ([2]; target pH 5.0): 6.18; Final pH ([2]; target pH 5.5): 6.43; Final pH ([2]; target pH 6.0): 7.02; Final pH ([2]; target pH 6.5): 6.43; Hygroscopicity ([5]; anhydrous/non-solvated free base form): non-hygroscopic; Solubility under acidic conditions [5]: good solubility |
| C[C@]1(O)C[C@@H](c2nc(-c3ccc4ccc(-c5ccccc5)nc4c3)c3c(N)nccn32)C1.O=C(O)C[C@H](O)C(=O)O [Malate 4] | – | – | – | – | – | – | – | – | – | – | – | – | – | – | – | – | – | – | – | – | XRPD result after heating ([6]; 92° C., 15 min): Malate 7; Form change upon heating (PXRD) ([6]; heated for 15 minutes): dehydrate to a new form, designated as Malate 7; TGA Results (weight loss) [7]: 7.3%, start to 65 °C; Water activity boundary between Malate 4 and Malate 1 [3]: approximately 0.9 water activity; PXRD Results [8]: Malate 4 |
